Source: patent US20210254272A1, “TEXTILES HAVING ANTIMICROBIAL PROPERTIES” (Livinguard AG, priority 2015, published 2021)

Tested on: E. coli (ATCC 25922)
Assay: AATCC Test Method 100-2012 antibacterial activity of the treated textile, after 25 washes and 12 abrasion cycles, contact time 60 minutes
Type: cell-based
Conditions: for Performance Test-Log reduction of antimicrobial performance: pad process, 2 min
Method: The antibacterial activity of the textile was tested in accordance with AATCC Test Method 100-2012. Prior to the test, the fabric was cut into coupons of 2×4 inches and washed separately 25 times, and exposed to 12 abrasion cycles, as per US EPA protocol 90072PA4 (described further below). The tests were made against E. coli (ATCC 25922). Contact time was 60 minutes, after inoculating with 10^8 CFU per coupon.

CCCCCCCCCCCCCCCCCC[N+](C)(C)CCC[Si](OC)(OC)OC [Organosilane, dimethyloctadecyl[3-(trimethoxysilyl)propyl] ammonium chloride]
Performance Test-Log reduction of antimicrobial performance (single agent 5 gm/lit, curing 180° C.): 0.93 Log
Performance Test-Log reduction of antimicrobial performance (single agent 10 gm/lit, curing 120° C.): 0.38 Log
Performance Test-Log reduction of antimicrobial performance (single agent 10 gm/lit, curing 140° C.): 0.53 Log
Performance Test-Log reduction of antimicrobial performance (single agent 10 gm/lit, curing 150° C.): 0.62 Log
Performance Test-Log reduction of antimicrobial performance (single agent 10 gm/lit, curing 160° C.): 0.98 Log
Performance Test-Log reduction of antimicrobial performance (single agent 10 gm/lit, curing 180° C.): 2.21 Log
Log reduction of antimicrobial performance (pure cotton fabric, exhaust 80° C., 60 min, dosage 0.1% o.w.f): 0.81 Log
Log reduction of antimicrobial performance (pure cotton fabric, exhaust 80° C., 60 min, dosage 0.2% o.w.f): 1.67 Log
Log reduction of antimicrobial performance (pure cotton fabric, exhaust 80° C., 60 min, dosage 0.5% o.w.f): 1.83 Log
Log reduction of antimicrobial performance (pure cotton fabric, exhaust 80° C., 60 min, dosage 0.8% o.w.f): 2.17 Log
Log reduction of antimicrobial performance (pure cotton fabric, exhaust 80° C., 60 min, dosage 1.0% o.w.f): 2.56 Log
Log reduction of antimicrobial performance (pure cotton, exhaust 80° C., 1% o.w.f, 60 min, curing 180° C., curing dwell time 0.5 min): 0.3 Log
Log reduction of antimicrobial performance (pure cotton, exhaust 80° C., 1% o.w.f, 60 min, curing 180° C., curing dwell time 1.0 min): 1.1 Log
Log reduction of antimicrobial performance (pure cotton, exhaust 80° C., 1% o.w.f, 60 min, curing 180° C., curing dwell time 1.5 min): 1.8 Log
Log reduction of antimicrobial performance (pure cotton, exhaust 80° C., 1% o.w.f, 60 min, curing 180° C., curing dwell time 2.0 min): 2.5 Log
Log reduction of antimicrobial performance (pure cotton, exhaust 80° C., 1% o.w.f, 60 min, curing 180° C., curing dwell time 2.5 min): 2.4 Log
Log reduction of antimicrobial performance (pure cotton, exhaust 80° C., 1% o.w.f, 60 min, curing 180° C., curing dwell time 3.0 min): 1.4 Log
Log reduction of antimicrobial performance (pure polyester fabric, exhaust 80° C., 60 min, curing 180° C., curing dwell time 0.5 min): 0.4 Log
Log reduction of antimicrobial performance (pure polyester fabric, exhaust 80° C., 60 min, curing 180° C., curing dwell time 1.0 min): 1.2 Log
Log reduction of antimicrobial performance (pure polyester fabric, exhaust 80° C., 60 min, curing 180° C., curing dwell time 1.5 min): 1.7 Log
Log reduction of antimicrobial performance (pure polyester fabric, exhaust 80° C., 60 min, curing 180° C., curing dwell time 2.0 min): 2.75 Log
Log reduction of antimicrobial performance (pure polyester fabric, exhaust 80° C., 60 min, curing 180° C., curing dwell time 2.5 min): 2.45 Log
Log reduction of antimicrobial performance (pure polyester fabric, exhaust 80° C., 60 min, curing 180° C., curing dwell time 3.0 min): 1.3 Log
Log reduction of antimicrobial performance (pure polyester fabric, exhaust 80° C., 60 min, dosage 0.1% o.w.f): 0.72 Log
Log reduction of antimicrobial performance (pure polyester fabric, exhaust 80° C., 60 min, dosage 0.2% o.w.f): 1.65 Log
Log reduction of antimicrobial performance (pure polyester fabric, exhaust 80° C., 60 min, dosage 0.5% o.w.f): 1.75 Log
Log reduction of antimicrobial performance (pure polyester fabric, exhaust 80° C., 60 min, dosage 0.8% o.w.f): 2.16 Log
Log reduction of antimicrobial performance (pure polyester fabric, exhaust 80° C., 60 min, dosage 1.0% o.w.f): 2.58 Log
Log reduction of antimicrobial performance (solution dosage 0.10% o.w.f, exhaust temperature 40° C., process time 60 min): 0 Log
Log reduction of antimicrobial performance (solution dosage 0.10% o.w.f, exhaust temperature 60° C., process time 60 min): 0 Log
Log reduction of antimicrobial performance (solution dosage 0.10% o.w.f, exhaust temperature 65° C., process time 60 min): 0 Log
Log reduction of antimicrobial performance (solution dosage 0.10% o.w.f, exhaust temperature 70° C., process time 60 min): 0 Log
Log reduction of antimicrobial performance (solution dosage 0.10% o.w.f, exhaust temperature 75° C., process time 60 min): 0.63 Log
Log reduction of antimicrobial performance (solution dosage 0.10% o.w.f, exhaust temperature 80° C., process time 60 min): 0.78 Log
Log reduction of antimicrobial performance (solution dosage 0.10% o.w.f, exhaust temperature 85° C., process time 60 min): 0.81 Log
Log reduction of antimicrobial performance (solution dosage 0.10% o.w.f, exhaust temperature 90° C., process time 60 min): 0.82 Log
Log reduction of antimicrobial performance (solution dosage 0.10% o.w.f, exhaust temperature 95° C., process time 60 min): 0.82 Log
Log reduction of antimicrobial performance (solution dosage 0.20% o.w.f, exhaust temperature 40° C., process time 60 min): 0 Log
Log reduction of antimicrobial performance (solution dosage 0.20% o.w.f, exhaust temperature 60° C., process time 60 min): 0.09 Log
Log reduction of antimicrobial performance (solution dosage 0.20% o.w.f, exhaust temperature 65° C., process time 60 min): 0.10 Log
Log reduction of antimicrobial performance (solution dosage 0.20% o.w.f, exhaust temperature 70° C., process time 60 min): 0.17 Log
Log reduction of antimicrobial performance (solution dosage 0.20% o.w.f, exhaust temperature 75° C., process time 60 min): 0.92 Log
Log reduction of antimicrobial performance (solution dosage 0.20% o.w.f, exhaust temperature 80° C., process time 60 min): 1.52 Log
Log reduction of antimicrobial performance (solution dosage 0.20% o.w.f, exhaust temperature 85° C., process time 60 min): 1.65 Log
Log reduction of antimicrobial performance (solution dosage 0.20% o.w.f, exhaust temperature 90° C., process time 60 min): 1.65 Log
Log reduction of antimicrobial performance (solution dosage 0.20% o.w.f, exhaust temperature 95° C., process time 60 min): 1.65 Log
Log reduction of antimicrobial performance (solution dosage 0.50% o.w.f, exhaust temperature 40° C., process time 60 min): 0 Log
Log reduction of antimicrobial performance (solution dosage 0.50% o.w.f, exhaust temperature 60° C., process time 60 min): 0.17 Log
Log reduction of antimicrobial performance (solution dosage 0.50% o.w.f, exhaust temperature 65° C., process time 60 min): 0.18 Log
Log reduction of antimicrobial performance (solution dosage 0.50% o.w.f, exhaust temperature 70° C., process time 60 min): 0.19 Log
Log reduction of antimicrobial performance (solution dosage 0.50% o.w.f, exhaust temperature 75° C., process time 60 min): 1.23 Log
Log reduction of antimicrobial performance (solution dosage 0.50% o.w.f, exhaust temperature 80° C., process time 60 min): 1.78 Log
Log reduction of antimicrobial performance (solution dosage 0.50% o.w.f, exhaust temperature 85° C., process time 60 min): 1.82 Log
Log reduction of antimicrobial performance (solution dosage 0.50% o.w.f, exhaust temperature 90° C., process time 60 min): 1.83 Log
Log reduction of antimicrobial performance (solution dosage 0.50% o.w.f, exhaust temperature 95° C., process time 60 min): 1.83 Log
Log reduction of antimicrobial performance (solution dosage 0.80% o.w.f, exhaust temperature 40° C., process time 60 min): 0 Log
Log reduction of antimicrobial performance (solution dosage 0.80% o.w.f, exhaust temperature 60° C., process time 60 min): 0.23 Log
Log reduction of antimicrobial performance (solution dosage 0.80% o.w.f, exhaust temperature 65° C., process time 60 min): 0.24 Log
Log reduction of antimicrobial performance (solution dosage 0.80% o.w.f, exhaust temperature 70° C., process time 60 min): 0.36 Log
Log reduction of antimicrobial performance (solution dosage 0.80% o.w.f, exhaust temperature 75° C., process time 60 min): 1.32 Log
Log reduction of antimicrobial performance (solution dosage 0.80% o.w.f, exhaust temperature 80° C., process time 60 min): 2.13 Log
Log reduction of antimicrobial performance (solution dosage 0.80% o.w.f, exhaust temperature 85° C., process time 60 min): 2.23 Log
Log reduction of antimicrobial performance (solution dosage 0.80% o.w.f, exhaust temperature 90° C., process time 60 min): 2.34 Log
Log reduction of antimicrobial performance (solution dosage 0.80% o.w.f, exhaust temperature 95° C., process time 60 min): 2.34 Log
Log reduction of antimicrobial performance (solution dosage 1.00% o.w.f, exhaust temperature 40° C., process time 60 min): 0 Log
Log reduction of antimicrobial performance (solution dosage 1.00% o.w.f, exhaust temperature 60° C., process time 60 min): 0.28 Log
Log reduction of antimicrobial performance (solution dosage 1.00% o.w.f, exhaust temperature 65° C., process time 60 min): 0.29 Log
Log reduction of antimicrobial performance (solution dosage 1.00% o.w.f, exhaust temperature 70° C., process time 60 min): 0.42 Log
Log reduction of antimicrobial performance (solution dosage 1.00% o.w.f, exhaust temperature 75° C., process time 60 min): 1.45 Log
Log reduction of antimicrobial performance (solution dosage 1.00% o.w.f, exhaust temperature 80° C., process time 60 min): 2.56 Log
Log reduction of antimicrobial performance (solution dosage 1.00% o.w.f, exhaust temperature 85° C., process time 60 min): 2.69 Log
Log reduction of antimicrobial performance (solution dosage 1.00% o.w.f, exhaust temperature 90° C., process time 60 min): 2.71 Log
Log reduction of antimicrobial performance (solution dosage 1.00% o.w.f, exhaust temperature 95° C., process time 60 min): 2.71 Log
